Source: patent publication US20160220710A1, “COMPOSITIONS AND METHODS FOR DELIVERING PHARMACEUTICAL AGENTS” (THE REGENTS OF THE UNIVERSITY OF MICHIGAN, priority 2015, published 2016)

Test system: F4/80(+) peritoneal macrophages (PMΦ)
Experiment: Flow cytometry of peritoneal exudate of CFZ-treated mice
Assay type: in vivo
Source text: Mice (4 week old, male C57Bl6) were purchased from the Jackson Laboratory (Bar Harbor, Me.) and acclimatized for 1 week in a specific-pathogen-free animal facility. Animal care was provided by the University of Michigan's Unit for Laboratory Animal Medicine (ULAM) and the experimental protocol was approved by the Committee on Use and Care of Animals in accordance with NIH guidelines. An oral diet containing CFZ was fed to mice as previously described (Baik J, et al., Antimicrob. Agents Chemother. 2013; 57:1218-30; Baik J, et al., PLoS One 2012; 7:e47494; Keswani R K, et al., Mol. Pharm. 2015:10). CFZ (C8895; Sigma-Aldrich, St. Louis, Mo., USA) was dissolved in sesame oil (Roland, China, or Shirakiku, Japan) to achieve a concentration of 3 mg/ml, which was mixed with Powdered Lab Diet 5001 (PMI International, Inc., St. Louis, Mo., USA) to produce a 0.03% drug to powdered feed mix. A corresponding amount of sesame oil was mixed with chow for vehicle treatment (control mice). On average, food consumption for a 25 g mouse was 3 g per day, resulting in 10 mg of bioavailable drug/kg per day. For CFZ treatment, the drug diet was administered for 8 weeks followed by regular chow for 8 weeks (washout phase).
Peritoneal lavage was done as previously reported before and after the initiation of CFZ or vehicle treatment (1 week, 2 weeks, 4 weeks, 8 weeks and 16 weeks (8 weeks drug feed+8 weeks washout phase)) (16). Mice were euthanized as described above followed by sterilization of the outer skin with 70% ethanol. A small incision was made along the midline of the abdomen followed by abdominal skin retraction up to the thoracic boundary and the animal extremities to expose the intact peritoneal wall. A smaller incision was then made on the peritoneal wall to expose the cavity. The entire peritoneal cavity was washed with ice-cold sterile PBS+5% FBS (5-10 ml) and collected as peritoneal exudate. The exudate was then centrifuged (100×g for 5 min, 4° C.) and resuspended in 1.5 ml of PBS+5% FBS. Cells were counted using a hemocytometer for viable cells using Trypan Blue and for CLDI-containing cells.
Peritoneal and alveolar lavage was performed as stated before to obtain the respective exudates. Purified Fc block CD16/32 (1 μl) was added for every 100,000 cells for analysis. For CLDI fluorescence signal experiments, cells were pelleted by centrifugation (100×g for 5 min) followed by resuspension in PBS+5% FBS (500 μl). For functional assays, antibodies—anti-F4/80-eFluor 450 (48-4801, Affymetrix eBioscience, San Diego, Calif., USA), anti-CD86-FITC (553691, BD Biosciences, San Jose, Calif., USA), anti-CD206-FITC (141704, BioLegend®, San Diego, Calif., USA), anti-CD11c-eFluor450 (48-0114, Affymetrix eBioscience) and anti-Ly6G-eFluor450 (48-5931, Affymetrix eBioscience) were added to the cell suspension at a loading of 1 μg/100,000 cells (1:10 volumetric ratio) and incubated in the dark (30 min, 4° C.). Following incubation, the samples were diluted with PBS and pelleted by centrifugation (100×g, 5 min). The supernatant was discarded and the pellet was re-suspended in 300 μl of PBS+2% FBS. Just prior to analysis, PI (5 μl per 1×10^6 cells) was added to the cells to assess viability. Sample measurements were done on a MoFlo® Astrios™ EQ. All gating and analysis was done on at least 10,000 live cells (PI(−) cell population) using FlowJo. CLDI(+) cells were gated either using 640 671/30 or 640 795/70. […] These cells also had extremely high side-scatter that were measured as saturated signals. This small sub-population of cells were not considered for evaluation of change of CD206 expression in the peritoneal macrophages.

CC(C)/N=c1\cc2n(-c3ccc(Cl)cc3)c3ccccc3nc-2cc1Nc1ccc(Cl)cc1 [CFZ, 3-(p-chloroanilino)-10-(p-chlorophenyl)-2, 10-dihydro-2-isopropyliminophenazine]
% CLDI(+) cells identified as F4/80(+) CD86(+) (4 weeks post-drug feeding): ~38% | % CLDI(+) cells identified as F4/80(+) CD206(+) (4 weeks post-drug feeding): ~20% | ratiometric CD86 median surface expression in CLDI(+) relative to CLDI(−) (4 weeks post-drug feeding): ~1.17 | % of F4/80(+) PMΦ that were CLDI(+) (8 weeks of washout): ~25% | ratiometric CD86 median surface expression in CLDI(+) relative to CLDI(−) (8 weeks post-drug feeding): 0.95 | % CLDI(+) cells identified as F4/80(+) CD86(+) (8 weeks+8 weeks washout): ~70% | % CLDI(+) cells identified as F4/80(+) CD206(+) (8 weeks+8 weeks washout): ~81% | CLDI accumulation within F4/80(+) CD86(+) cells (8 weeks+8 weeks washout): ~95% | CLDI(+)% as a proportion of F4/80(+) CD206(+) cells (8 weeks+8 weeks washout): ~93% | % of F4/80(+) PMΦ that were CLDI(+) (after 4 weeks of CFZ treatment): ~38% | CLDI accumulation within F4/80(+) CD86(+) cells (after 4 weeks of CFZ treatment): ~31% | CLDI(+)% as a proportion of F4/80(+) CD206(+) cells (after 4 weeks of CFZ treatment): ~15% | % of F4/80(+) PMΦ that were CLDI(+) (after 8 weeks of treatment): ~61% | % of total CLDI(+) cells localized to F4/80(+) peritoneal macrophages (all measured time points): > 85%
